How the values were obtained:
[1] = target: rCB1 (Rattus norvegicus (Rat), UniProt P20272); assay: Radioligand competitive binding assay, CB1 receptor (NIMH PDSP); conditions: means of three experiments run in triplicate
From the text: (§1) The compounds was screened using whole-cell voltage clamp techniques for their ability to mediate tonic block of transiently expressed hCav3.2 channels (FIG. 1). Next, radioligand binding assays were used to assess the affinities of these compounds for both CB1 and CB2 receptors (Table 1).
(§2) CB1 and CB2 radioligand binding data were obtained using National Institute of Mental Health (NIMH) Psychoactive Drug Screening Program (PDSP) resources as described earlier.

[2] = target: hCB2 (Homo sapiens (Human), UniProt P34972); assay: Radioligand competitive binding assay, CB2 receptor (NIMH PDSP); conditions: means of three experiments run in triplicate
From the text: as §1, §2

[3] = test system: wild-type mice, formalin-induced pain; assay: Formalin test (acute nociceptive and inflammatory phases); format: in vivo, mouse; conditions: for inhibition of pain response time, first phase: formalin first phase; for inhibition of pain response time, second phase: formalin second phase
From the text: (§3) During experiments, all efforts were made to minimize animal suffering according to the policies and recommendations of the International Association for the Study of Pain and all protocols used were approved by the Institutional Animal Care and Use Committee. For all experiments, either adult male C57BL/6J (wild-type) or CACNA1H knockout (Cav3.2 null) mice (20-25 g) purchased from Jackson Laboratories were used. There were a maximum of five mice per cage (30×20×15 cm) and access to food and water was unlimited. Temperature was kept at 23±1° C. on a 12 h light/dark cycle (lights on at 7:00 a.m.). Intraperitoneal (i.p.) injections of drugs were a constant volume of 10 ml/kg body weight. Intrathecal (i.t.) injections used volumes of 10 μl and were performed using the method described previously and carried out routinely in our laboratory. All drugs were dissolved in 1% or less DMSO, whereas control animals received PBS+1% DMSO. For each test, a different group of mice were used and only one experiment per mouse was performed.
Before experiments were performed, mice were left to acclimatize for at least 60 minutes. Animals were then injected intraplantarily (i.pl.) in the ventral surface of the right hindpaw with 20 μl of a formalin solution (1.25%) made up in PBS. Following i.pl. injections of formalin, individual animals were placed immediately into observation chambers and monitored from 0-5 min (acute nociceptive phase) and 15-30 min (inflammatory phase).

[4] = test system: wild type mice; assay: Open-field test (locomotor activity); format: in vivo, mouse; conditions: 30 mg/kg, i.p.
From the text: as §3
Briefly, the apparatus consisted of a wooden box measuring 40×60×50 cm with a glass front wall. The floor was divided into 12 equal squares and the entire apparatus was placed in a sound free room. Animals were placed in the rear left square and left to explore freely and the number of squares crossed with all paws (crossing) in a 6 minute timeframe was counted. […]

[5] = test system: mice with partial sciatic nerve injury; assay: Partial sciatic nerve injury (PNI)-induced neuropathic pain, mechanical hyperalgesia; format: in vivo, mouse; conditions: 30 mg/kg, i.p.; after treatment
From the text: as §3
Before surgery, mice were anaesthetised with isoflurane (5% induction, 2.5% maintenance). […] Mechanical hyperalgesia was then evaluated in a time-dependant manner.
Mechanical hyperalgesia responses were recorded immediately before the surgeries (baselines), 14 days after the surgeries (0) and at various time points (0.5, 1, 2, 3 h) after treatment. […]

[6] = 1-10 μg/i.t., 20 minutes before
[7] = 10-100 mg/kg, i.p., 30 minutes prior

SMILES | rCB1 Ki [1] | hCB2 Ki [2] | inhibition of pain response time, first phase [3, 6] [%] | inhibition of pain response time, second phase [3, 6] [%] | inhibition of pain response time, first phase [3, 7] [%] | inhibition of pain response time, second phase [3, 7] [%] | locomotor activity in open-field test [4] | locomotor activity in open-field test ([4]; listed as compound 9) | duration of attenuation of mechanical hyperalgesia [5] [h]
CCCCCn1c2ccccc2c2cc(C(=O)NCC3CCNCC3)ccc21 [Compound 7, 9-Pentyl-N-(piperidin-4-ylmethyl)-9H-carbazole-3-carboxamide] | n.b. | n.b. |  |  |  |  |  |  | 
CCCCCn1c2ccccc2c2cc(C(=O)NCC3CCN(CC(=O)NC(C)(C)C)CC3)ccc21 [Compound 9, N-((1-(2-(tert-butylamino)-2-oxoethyl)piperidin-4-yl)methyl)-9-pentyl-9H-carbazole-3-carboxamide] |  |  | 61±8 | 76±10 | 47±2 | 66±48 | no significant motor deficits | did not significantly affect locomotor activity | > 3
